Test results taken from PubChem BioAssay AID2060327 (Molecular Pharmacology Branch, DTP, NCI, 2025).

Test system: PC-3 multi-cell spheroids, viability
Test: Anticancer human tumor PC-3 cell line growth inhibition [IpAb];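 note: spheroids exposed to compounds for 7 days before readout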;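 for viability, T/C: 100% = DMSO vehicle control wells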
Settings: for IC50: curve of first compound; for viability, T/C: stronger effect = lower value
Method in brief: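 Spheroids of 60% malignant cells, 25% HUVEC and 15% MSC were exposed to targeted agents combined with ipatasertib or abemaciclib. Doses started at or near clinical Cmax (10 microM when unknown) and fell in half-log steps.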

[1] = second compound 0.01 µM, first compound 0.00949 µM
[2] = second compound 0.01 µM, first compound 0.03 µM
[3] = second compound 0.01 µM, first compound 0.0949 µM
[4] = second compound 0.01 µM, first compound 0.3 µM
[5] = second compound 0.0316 µM, first compound 0.00949 µM
[6] = second compound 0.0316 µM, first compound 0.03 µM
[7] = second compound 0.0316 µM, first compound 0.0949 µM
[8] = second compound 0.0316 µM, first compound 0.3 µM
[9] = second compound 0.1 µM, first compound 0.00949 µM
[10] = second compound 0.1 µM, first compound 0.03 µM
[11] = second compound 0.1 µM, first compound 0.0949 µM
[12] = second compound 0.1 µM, first compound 0.3 µM
[13] = second compound 0.316 µM, first compound 0.00949 µM
[14] = second compound 0.316 µM, first compound 0.03 µM
[15] = second compound 0.316 µM, first compound 0.0949 µM
[16] = second compound 0.316 µM, first compound 0.3 µM
[17] = second compound 1 µM, first compound 0.00949 µM
[18] = second compound 1 µM, first compound 0.03 µM
[19] = second compound 1 µM, first compound 0.0949 µM
[20] = second compound 1 µM, first compound 0.3 µM

| SMILES | IC50 (second compound 0.01 µM) | IC50 (second compound 0.0316 µM) | IC50 (second compound 0.1 µM) | IC50 (second compound 0.316 µM) | IC50 (second compound 1 µM) | viability, T/C [1] | viability, T/C [2] | viability, T/C [3] | viability, T/C [4] | viability, T/C [5] | viability, T/C [6] | viability, T/C [7] | viability, T/C [8] | viability, T/C [9] | viability, T/C [10] | viability, T/C [11] | viability, T/C [12] | viability, T/C [13] | viability, T/C [14] | viability, T/C [15] | further results |
| --- | --- | --- | --- | --- | --- | --- | --- | --- | --- | --- | --- | --- | --- | --- | --- | --- | --- | --- | --- | --- | --- |
| CC(=O)c1c(C)c2cnc(Nc3ccc(N4CCNCC4)cn3)nc2n(C2CCCC2)c1=O + CCN1CCN(Cc2ccc(Nc3ncc(F)c(-c4cc(F)c5nc(C)n(C(C)C)c5c4)n3)nc2)CC1 | > 300 nM | > 300 nM | > 300 nM | > 300 nM | > 300 nM | 70.7% | 61.7% | 62% | 56.6% | 53.7% | 53.7% | 56.4% | 59.8% | 52.9% | 53.7% | 57.9% | 55.4% | 63.1% | 64.9% | 65.5% | viability, T/C (second compound 0.01 µM, first compound 0.000949 µM): 79.2%; viability, T/C (second compound 0.01 µM, first compound 0.003 µM): 68.6%; viability, T/C (second compound 0.0316 µM, first compound 0.000949 µM): 49.9%; viability, T/C (second compound 0.0316 µM, first compound 0.003 µM): 57.3%; viability, T/C (second compound 0.1 µM, first compound 0.000949 µM): 53.5%; viability, T/C (second compound 0.1 µM, first compound 0.003 µM): 53.9%; viability, T/C (second compound 0.316 µM, first compound 0.000949 µM): 60%; viability, T/C (second compound 0.316 µM, first compound 0.003 µM): 56.8%; viability, T/C [16]: 60.9%; viability, T/C (second compound 1 µM, first compound 0.000949 µM): 58.1%; viability, T/C (second compound 1 µM, first compound 0.003 µM): 60.2%; viability, T/C [17]: 57.3%; viability, T/C [18]: 57.5%; viability, T/C [19]: 51.2%; viability, T/C [20]: 55.1% |
| CC(C)(C)c1cnc(CSc2cnc(NC(=O)C3CCNCC3)s2)o1 + CCN1CCN(Cc2ccc(Nc3ncc(F)c(-c4cc(F)c5nc(C)n(C(C)C)c5c4)n3)nc2)CC1 | 175 nM | 146 nM | 98.5 nM | 38.1 nM | < 9.49 nM | 75.9% | 103% | 113% | 7.99% | 63.5% | 71.5% | 94.4% | 4.86% | 69.1% | 73.4% | 51.5% | 3.51% | 55.9% | 54.3% | 30.5% | viability, T/C (second compound 0.01 µM, first compound 0.949 µM): 6.01%; viability, T/C (second compound 0.01 µM, first compound 3 µM): 7.44%; viability, T/C (second compound 0.0316 µM, first compound 0.949 µM): 4.92%; viability, T/C (second compound 0.0316 µM, first compound 3 µM): 7.51%; viability, T/C (second compound 0.1 µM, first compound 0.949 µM): 6%; viability, T/C (second compound 0.1 µM, first compound 3 µM): 7.79%; viability, T/C [16]: 4.21%; viability, T/C (second compound 0.316 µM, first compound 0.949 µM): 5.66%; viability, T/C (second compound 0.316 µM, first compound 3 µM): 7.81%; viability, T/C [17]: 44.7%; viability, T/C [18]: 36.5%; viability, T/C [19]: 22.7%; viability, T/C [20]: 4.97%; viability, T/C (second compound 1 µM, first compound 0.949 µM): 7.15%; viability, T/C (second compound 1 µM, first compound 3 µM): 8.41% |
